Data reported in publication PMC6265301, “Engineering Saccharomyces cerevisiae for co-utilization of D-galacturonic acid and D-glucose from citrus peel waste” (Nature Communications, 2018).

Assays:
[1] = biological target: T1, GAAC (Aspergillus niger, UniProt A8DRH7); assay: aldolase activity in yeast lysate; assay type: biochemical
T1 construct: codon-optimized, expressed in S. cerevisiae BY4741, lysate
T1 sequence (A8DRH7 1-335): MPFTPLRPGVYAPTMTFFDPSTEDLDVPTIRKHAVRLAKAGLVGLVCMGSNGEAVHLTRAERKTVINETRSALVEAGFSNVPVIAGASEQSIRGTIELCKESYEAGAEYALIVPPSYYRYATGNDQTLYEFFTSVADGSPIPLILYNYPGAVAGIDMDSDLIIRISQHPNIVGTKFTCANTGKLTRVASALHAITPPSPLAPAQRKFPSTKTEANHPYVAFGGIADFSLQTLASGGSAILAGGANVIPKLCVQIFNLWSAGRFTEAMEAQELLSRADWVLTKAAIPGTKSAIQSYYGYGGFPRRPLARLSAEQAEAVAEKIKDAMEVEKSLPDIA

[2] = biological target: T2, uronate dehydrogenase (UDH) (Pseudomonas syringae group genomosp. 3, UniProt Q888H1); assay: conversion to meso-galactaric acid by UDH-expressing yeast, HPLC; assay type: cell-based; settings: orange peel hydrolysate, GatA co-expressed
T2 construct: genomically integrated, expressed in S. cerevisiae with GatA
T2 sequence (Q888H1 1-275): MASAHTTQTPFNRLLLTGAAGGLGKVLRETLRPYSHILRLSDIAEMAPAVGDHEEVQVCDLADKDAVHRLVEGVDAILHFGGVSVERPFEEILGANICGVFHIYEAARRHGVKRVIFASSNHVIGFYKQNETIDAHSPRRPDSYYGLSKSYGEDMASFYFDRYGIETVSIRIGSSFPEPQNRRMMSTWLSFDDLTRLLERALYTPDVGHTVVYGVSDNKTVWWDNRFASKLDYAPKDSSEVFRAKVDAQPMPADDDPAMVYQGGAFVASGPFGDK

[3] = biological target: T3, GAR1 (Trichoderma reesei, UniProt Q3ZFI7); assay: reductase activity in yeast lysate; assay type: biochemical
T3 construct: codon-optimized, expressed in S. cerevisiae BY4741, lysate
T3 sequence (Q3ZFI7 1-309): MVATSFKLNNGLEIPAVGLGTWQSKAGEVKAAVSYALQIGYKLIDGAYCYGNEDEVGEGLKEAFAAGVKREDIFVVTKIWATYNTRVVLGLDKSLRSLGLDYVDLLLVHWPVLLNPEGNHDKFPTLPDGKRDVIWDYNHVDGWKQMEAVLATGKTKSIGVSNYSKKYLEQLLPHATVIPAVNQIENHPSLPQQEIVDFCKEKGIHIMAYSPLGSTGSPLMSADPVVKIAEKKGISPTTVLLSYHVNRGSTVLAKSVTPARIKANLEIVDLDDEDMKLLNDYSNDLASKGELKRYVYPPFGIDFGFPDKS

[4] = biological target: T4, GAAA (Aspergillus niger, UniProt A8DRH9); assay: reductase activity in yeast lysate; assay type: biochemical
T4 construct: codon-optimized, expressed in S. cerevisiae BY4741, lysate
T4 sequence (A8DRH9 1-412): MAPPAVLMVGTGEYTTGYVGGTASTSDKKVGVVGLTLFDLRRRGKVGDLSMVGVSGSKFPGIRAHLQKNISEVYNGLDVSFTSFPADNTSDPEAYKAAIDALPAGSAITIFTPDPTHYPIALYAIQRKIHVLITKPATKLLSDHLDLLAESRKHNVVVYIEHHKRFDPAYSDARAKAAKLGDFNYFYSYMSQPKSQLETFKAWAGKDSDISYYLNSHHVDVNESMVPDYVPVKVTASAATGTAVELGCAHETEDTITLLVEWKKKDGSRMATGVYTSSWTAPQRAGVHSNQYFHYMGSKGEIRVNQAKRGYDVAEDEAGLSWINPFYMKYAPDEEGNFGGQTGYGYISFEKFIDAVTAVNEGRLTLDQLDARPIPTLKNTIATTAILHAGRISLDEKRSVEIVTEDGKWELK

| Compound | aldolase activity in yeast lysate [1] | conversion to meso-galactaric acid by UDH-expressing yeast, HPLC [2] | reductase activity in yeast lysate [3] | reductase activity in yeast lysate [4] |
| --- | --- | --- | --- | --- |
| O=C(O)C(=O)C[C@H](O)[C@@H](O)CO [2-keto-3-deoxy-L-galactonate] | 2-keto-3-deoxy-L-galactonate aldolase from Aspergillus niger (GAAC) | – | – | – |
| O=C(O)[C@H]1OC(O)[C@H](O)[C@@H](O)[C@H]1O (stereo partly drawn) [D-galUA] | – | conversion of D-galUA to meso-galactaric acid was observed in the UDH and GatA co-expression strain | D-galacturonate reductase from Trichoderma reesei (GAR1) | lower specific activities measured for GAAA compared to GAR1 in cell lysate |
